Measured values as given in patent US11518981B2, “Methods of enhancing engraftment activity of hematopoietic stem cells” (CHILDREN'S HOSPITAL MEDICAL CENTER, priority 2017, dated 2022).

Columns and labels:
[1] = tested on: CD34^+38^−90^+ HSCs; test: cell cycle analysis (Ki-67 / Hoechst) of HSCs; format: cell-based, human; conditions: 72 h, RV transduced cycling HSCs; MK-8776 1 μM, PV1019 1 μM, PGE2 10 μM, Birb 796 600 nM
[2] = tested on: human MPB derived CD34^+ cells; test: multi-lineage reconstitution (myeloid / B-lymphoid) in bone marrow of NSG mice; format: in vivo; conditions: limiting dilution transplant, 42 h LV; 6 mo post 1 T
Description: NOD.Cg-Prkdcscid Il2rgtm1Wjl/SzJ (NSG) mice were purchased from The Jackson Laboratory (Bar Harbor, Me.). All animals were bred and maintained in a specific pathogen-free environment and all experiments were approved by the Institutional Animal Care and Use (IACUC) Committee. Male and female NSG mice aged 8 to 14 weeks old were fed doxycycline chow (TestDiet; Modified Prolab RMH-1500 with 0.0625% doxycycline) a week prior to, during and for 2 weeks post irradiation. Human engraftment was analyzed in bone marrow (BM), via BM aspirates performed at 6 and 12 weeks from left and right femurs. After sacrifice at 24 weeks, marrow from all of the primary mice (1 T) was harvested. Peripheral blood analysis was also performed in some experiments. Secondary transplants (2 T) were performed after mouse CD45^+ cells were depleted from BM harvested from each 1 T mouse separately, using Biotin Rat Anti-Mouse CD45 (BD Biosciences 553078) and Streptavidin Particles Plus-DM (BD Biosciences 557812) and injected into one irradiated (280 cGy) secondary NSG mouse. For calculating competitive repopulating units (CRU) from limiting dilution transplantation, the L-CALC^TM software (Stem Cell Technologies) was used. All of the mice used for this study were randomly assigned to a treatment group. No animals were excluded from the analysis. PE-Cyanine 7 or APC-EFLUOR® 780, APC- or PE-conjugated antibodies directed to human CD34 (BD Biosciences 560710 or 555824), CD38 (eBiosciences, San Diego, Calif. 47-0389-42), CD90 (BioLegend 328120), CD45RA (eBiosciences 17-0458-42), CD49f (BD Biosciences 555736), CD45 (BD 55485 or Biolegend 304026), CD33 (eBiosciences 25-0338-42), CD19 (BD Biosciences 557791), or CD3 (BD Biosciences 555340). Cells ( 5×10^5-1×10^6) were used to label with antibodies as per manufacturer instructions with the appropriate isotype controls. For phospho-flow, primary antibodies phospho-[…]), phospho-p44/42 MAPK (ERK 1⁄2) […]; […]), and phospho-JNK […] PE conjugate; […]) (all from Cell Signaling) were used for staining overnight followed by wash and secondary antibody stain including Goat anti-Rabbit IgG (H+L) or Goat anti-Rabbit IgG (H+L) or Pacific Blue (P-10994) antibody. Apoptosis assay was performed using PE Annexin V Apoptosis Detection Kit (BD Biosciences 559763) according to the manufacturer's instructions. Total ROS and mitochondrial specific ROS were detected using 10 μM CM-H2DCFDA (ThermoFisher Scientific C6827) and 5 μM MITOSOXTM Red (Red Mitochondrial Superoxide Indicator) (ThermoFisher Scientific M36008) respectively, following manufacturer's instructions.

[3] = tested on: HIF-1α; test: HIF-1α staining in HSCs (immunofluorescence, flow cytometry); format: cell-based, human; conditions: 72 h, RV transduced CD34^+38^−90^+ cells
Description: FACS sorted CD34+38−90+ cells were fixed in 2% paraformaldehyde and permeabilized using 0.1% TRITON™ X-100 (Alkaryl polyether alcohol, Sigma-Aldrich). Cells were then stained with primary antibodies Anti-phospho-H2AX (Ser 139) (Millipore, 05-636), anti-53BP1 antibody (Novus Biologicals, NB100-904), or anti-HIF-1α (ab103063). For secondary antibodies, Alexa Fluor 594 conjugated Goat anti-Rabbit IgG (H+L) (A-11037) or, ALEXA FLUOR® 647 conjugated Goat anti-Rabbit IgG (H+L) (A-21245) (both from ThermoFisher Scientific) were used for 1 hour at 37° C. Cells were counterstained and mounted with […]® antifade mounting medium with DAPI (H-1200 Vector Laboratories). Images were obtained using a Nikon 90i upright microscope.

[4] = tested on: γH2AX; test: DNA damage response (γH2AX, 53BP1) by immunofluorescence and flow cytometry; format: cell-based, human; conditions: 72 h, RV transduced cycling HSCs
Protocol: For EdU incorporation assay, cells were incubated with 10 μM EdU throughout the culture period and the CLICK-IT® Plus EdU Pacific Blue Flow Cytometry Assay Kit (ThermoFisher Scientific C10636) was used for staining. […] Samples were run through a FACSCANTOTM, FORTESSATM, or LSR 2 flow cytometers (BD Biosciences), and the data was analyzed by […] software (BD). […] II cell sorter. FACS sorted CD34+38-90+ cells were fixed in 2% paraformaldehyde and permeabilized using 0.1% […] polyether alcohol, Sigma-Aldrich). […] Cells were counterstained and mounted with […]® antifade mounting medium with DAPI (H-1200 Vector Laboratories). Images were obtained using a Nikon 90i upright microscope.

[5] = tested on: human CD34^+ cells; test: GFP marking in human grafts of NSG mice; format: in vivo; conditions: limiting dilution transplant; also long-termed secondary human grafts
Description: NOD.Cg-Prkdcscid Il2rgtm1Wjl/SzJ (NSG) mice were purchased from The Jackson Laboratory (Bar Harbor, Me.). All animals were bred and maintained in a specific pathogen-free environment and all experiments were approved by the Institutional Animal Care and Use (IACUC) Committee. Male and female NSG mice aged 8 to 14 weeks old were fed doxycycline chow (TestDiet; Modified Prolab RMH-1500 with 0.0625% doxycycline) a week prior to, during and for 2 weeks post irradiation. Human engraftment was analyzed in bone marrow (BM), via BM aspirates performed at 6 and 12 weeks from left and right femurs. After sacrifice at 24 weeks, marrow from all of the primary mice (1 T) was harvested. Peripheral blood analysis was also performed in some experiments. Secondary transplants (2 T) were performed after mouse CD45^+ cells were depleted from BM harvested from each 1 T mouse separately, using Biotin Rat Anti-Mouse CD45 (BD Biosciences 553078) and Streptavidin Particles Plus-DM (BD Biosciences 557812) and injected into one irradiated (280 cGy) secondary NSG mouse. […] Total ROS and mitochondrial specific ROS were detected using 10 μM CM-H2DCFDA (ThermoFisher Scientific C6827) and 5 μM MITOSOXTM Red (Red Mitochondrial Superoxide Indicator) (ThermoFisher Scientific M36008) respectively, following manufacturer's instructions.

## Cn1cc(-c2cnn3c(N)c(Br)c([C@@H]4CCCNC4)nc23)cn1 [Chk1i]
[1]
  transduced HSCs accumulated in the G2M phase: Fewer transduced-HSCs were found to accumulate in the G2M phase with Chk1i (albeit not statistically significant)

## CCCCC(C)(C)[C@H](O)/C=C/[C@H]1[C@H](O)CC(=O)[C@@H]1C/C=C\CCCC(=O)O [PGE2, 16,16 dimethyl Prostaglandin E2]
[2]
  lineage skewing: sufficient to restore the lineage skewing
[1]
  transduced HSCs accumulated in the G2M phase: tended to reduce
[3]
  HIF-1α levels in cycling transduced HSCs: could be stabilized
[4]
  γH2AX levels in the transduced HSCs: no effect
[5]
  GFP marking: did not have any effect
